{
  "source": "patent US10604473B2",
  "about": "“Lipids that increase insulin sensitivity and methods of using the same” (Beth Israel Deaconess Medical Center, Inc., priority 2013, dated 2020)",
  "key": {"3T3-L1 adipocytes": {"test_system": "3T3-L1 adipocytes", "experiment": "Glucose transport in 3T3-L1 adipocytes", "format": "cell-based", "settings": "chronic treatment", "method": "FIGS. 54A-D show glucose uptake regulation by PAHSAs and Glut4 translocation via GPR120. FIG. 54A is a bar graph showing insulin-stimulated glucose transport in 3T3-L1 adipocytes treated 9-PAHSA (20 μM) or vehicle (DMSO) control for 6 days. n=6 per group, *p<0.05 compared to vehicle by t-test. FIG. 54B is a bar graph showing insulin (10 nM)-stimulated glucose transport in 3T3-L1 adipocytes transfected with control siRNA or GPR120 siRNA and treated 5-PAHSA (10 μM), 9-PAHSA (10 μM) or vehicle (DMSO) control for 2 days. n=3 per group, *p<0.05 compared to DMSO+control siRNA or GPR120 siRNA alone, $p<0.05 compared to control siRNA or GPR120 siRNA+insulin and GPR120 siRNA+insulin+PAHSA by t-test. FIG. 54C is a panel showing Glut4 plasma membrane translocation in 3T3-L1 adipocytes transfected with control siRNA or GPR120 siRNA and treated with 9-PAHSA in the presence or absence of insulin. 6 separate experiments were carried out without RNAi and 3 experiments with RNAi; each experiment had greater than 50 cells per experimental condition. FIG. 54D is a bar graph showing quantification of Glut4 translocation in panel C. *p<0.05 compared to control siRNA+insulin and GPR120 siRNA+insulin+9-PAHSA by t-test. All data are presented as mean±s.e.m. See also FIG. 57.\nFor all cell culture experiments, FAHFAs were solubilized in DMSO at a concentration of 20 mM and further diluted in assay buffer or cell culture media to the working concentrations indicated for each assay. In all instances an equivalent volume of vehicle (DMSO) was added to control treatment groups."}, "[1]": {"experiment": "FAHFA biosynthesis (FA-CoA:HFA acyltransferase) assay in tissue lysates", "format": "biochemical", "settings": "9-HSA and oleoyl-CoA 10 μM, increasing doses of inhibitor", "method": "After first establishing that FA-CoA:HFA acyltransferase activity was membrane-localized in liver (not shown), membrane fractions from liver or WAT tissue lysate were isolated by ultracentrifugation, then resuspended the pellets in PBS buffer and diluted to 1 mg/ml protein concentration. […] Formation of 9-OAHSA was measured by MS/MS, with which the appearance of the parent ion m/z 563 was monitored.\nIn light of the above results acyltransferase families that have been reported to have a membrane-bound localization and to have the ability to conjugate FA-CoA to a hydrophobic alcohol were targeted. Two of the enzymes, DGAT1 and ACAT, had selective inhibitors that were commercially available, A922500 [20] and CI976 [21], which were used to test their ability to reduce FAHFA production in the biosynthesis assay (inhibitors purchased from Tocris Bioscience)."}, "STC-1 cells [2]": {"test_system": "STC-1 cells", "experiment": "ERK phosphorylation in STC-1 cells (immunoblot)", "format": "cell-based", "settings": "15 minutes stimulation", "method": "For the experiments summarized in FIG. 40, STC-1 cells were incubated with 9-PAHSA, 5-PAHSA or 9-OAHSA at the indicated concentrations. Cells were harvested and lysed and proteins were separated by SDS PAGE and transferred onto nitrocellulose filters. The phosphorylation of ERK and the amount of total ERK was determined by immunoblotting with antibodies specific for total or phosphor-ERK. DMSO was the control. For ERK phosphorylation, cells were serum deprived overnight and stimulated with FAHFAs or vehicle as indicated for 15 minutes followed by lysis in RIPA buffer and analysis by SDS-PAGE"}, "STC-1 cells [3]": {"test_system": "STC-1 cells", "experiment": "GLP-1 secretion from STC-1 enteroendocrine cells (ELISA)", "format": "cell-based", "method": "For the experiments summarized in FIG. 41 STC-1 cells were incubated with vehicle (DMSO), 9-PAHSA, 5-PAHSA or 9-OAHSA at the indicated concentrations or lineolic acid (100 uM) as a positive control. Media was harvested and GLP-1 was measured by ELISA.\nFor the experiments summarized in FIG. 42, the same protocol as described for FIG. 41 was used, except in this experiment a time course was performed. For both FIG. 41 and FIG. 42, for GLP-1 secretion STC1 cells were washed 3× with serum free culture media followed by stimulation with FAHFAs or vehicle at the indicated concentrations and timepoints. Levels of active GLP-1 were measured by ELISA."}, "[4]": {"experiment": "FAHFA hydrolysis assay, pancreas membrane lysate", "format": "biochemical", "from_the_text": "(§1) The experiment was repeated with either liver or pancreas membrane lysate."}, "[5]": {"test_system": "carboxyl ester lipase (CEL)", "experiment": "FAHFA hydrolysis assay, CEL-transfected HEK293T cell lysate", "format": "biochemical", "quoted_text": "Plasmid expression clones for these enzymes were obtained, which were under the control of the cytomegalovirus promoter (from the Cravatt lab), with which we transfected HEK293T cells to assess the ability of these enzymes to hydrolyze 9-PAHSA. For the activity assays, cell lysates were diluted according to the relative expression of the three clones according to ABP intensities.\nas §1"}, "[6]": {"experiment": "FAHFA hydrolysis assay (9-PAHSA to 9-HSA), liver lysate", "quoted_text": "To establish whether or not FAHFA can be enzymatically degraded, an LC-MS-based in vitro activity assay was developed to measure the hydrolysis of 9-PAHSA to 9-HSA. […] Liver lysate (1 mg/ml protein) was incubated with 100 μM 9-PAHSA at 37° C. for two hours. The reaction mixture was then extracted with one volume ethyl acetate, concentrated under nitrogen gas stream, and reconstituted in 1:1 chloroform:methanol for MS analysis."}},
  "data": [
    {"smiles": "CCCCCCCCC(O)CCCCCCCCC(=O)O", "note": "(stereo not drawn) [hydroxystearic acid]", "values": [
      {"measurement": "insulin-stimulated glucose transport", "setting": "3T3-L1 adipocytes", "result": "impaired insulin-stimulated glucose transport"}
    ]},
    {"smiles": "O=C(Nc1ccccc1)Nc1ccc(-c2ccc(C(=O)[C@@H]3CCC[C@H]3C(=O)O)cc2)cc1", "note": "[A922500]", "values": [
      {"measurement": "9-OAHSA levels (FAHFA production)", "setting": "[1]", "result": "no change in 9-OAHSA levels"}
    ]},
    {"smiles": "CCCCCCCCCCCCCCCC(=O)O", "note": "[palmitic acid]", "values": [
      {"measurement": "insulin-stimulated glucose transport", "setting": "3T3-L1 adipocytes", "result": "impaired insulin-stimulated glucose transport"}
    ]},
    {"smiles": "CCCCCCCCCCC(C)(C)C(=O)Nc1c(OC)cc(OC)cc1OC", "note": "[CI976]", "values": [
      {"measurement": "9-OAHSA levels (FAHFA production)", "setting": "[1]", "result": "no change in 9-OAHSA levels"}
    ]},
    {"smiles": "CCCCCCCC/C=C\\CCCCCCCC(=O)OC(CCCCCCCCC)CCCCCCCC(=O)O", "note": "(stereo not drawn) [9-OAHSA]", "values": [
      {"measurement": "ERK phosphorylation", "setting": "STC-1 cells [2]", "result": "induce ERK phosphorylation"},
      {"measurement": "GLP-1 secretion", "setting": "STC-1 cells [3]", "result": "induce GLP-1 secretion"}
    ]},
    {"smiles": "C[C@H](CCC(=O)NCCS(=O)(=O)O)[C@H]1CC[C@H]2[C@@H]3[C@H](O)C[C@@H]4C[C@H](O)CC[C@]4(C)[C@H]3C[C@H](O)[C@]12C", "note": "[NaTC, sodium taurocholate]", "values": [
      {"measurement": "bile-salt activation of FAHFA hydrolysis", "setting": "[4]", "result": "markedly increased"},
      {"measurement": "bile-salt activation of FAHFA hydrolysis", "setting": "[5]", "result": "enhanced"},
      {"measurement": "bile-salt activation of FAHFA hydrolysis", "setting": "[6]", "result": "not enhanced"}
    ]}
  ]
}
